Measured values published in the NIST ThermoML archive (doi:10.1021/je025651k).

Legend:
[1] = Liquid; for mass density: 298.15 K, 101.33 kPa
[2] = refractive index (Na D-line) (dimensionless); settings: 298.15 K, 101.33 kPa, Liquid

CCC(O)CC [3-pentanol]
Settings	mass density [kg/m3]	refractive index	vapor or sublimation pressure [kPa]
[1], 293.8 K	–	–	0.84
[1], 300.8 K	–	–	1.33
[1], 308 K	–	–	2.11
[1], 315.4 K	–	–	3.35
[1], 323 K	–	–	5.31
[1], 331.1 K	–	–	8.41
[1], 339.8 K	–	–	13.33
[1], 349.3 K	–	–	21.13
[1], 359.4 K	–	–	33.49
[1], 370.5 K	–	–	53.08
[1], 382.9 K	–	–	84.13
[1], 388.38 K	–	–	101.32
[1], 388.7 K	–	–	101.32
[1], vibrating tube	815.5	–	–
[2], Abbe refractometer	–	1.4087	–

CCCC(C)=O [pentan-2-one]
Settings	mass density [kg/m3]	refractive index	vapor or sublimation pressure [kPa]
[1], 329.8 K	–	–	20.44
[1], 336.3 K	–	–	26.55
[1], 342.1 K	–	–	33.04
[1], 347.2 K	–	–	39.99
[1], 351.5 K	–	–	46.57
[1], 355.5 K	–	–	53.47
[1], 358.9 K	–	–	59.95
[1], 362 K	–	–	66.61
[1], 365 K	–	–	73.28
[1], 367.7 K	–	–	79.91
[1], 370.3 K	–	–	86.76
[1], 372.6 K	–	–	93.11
[1], 375 K	–	–	100.06
[1], 375.09 K	–	–	101.32
[1], 377.2 K	–	–	106.83
[1], 379.3 K	–	–	113.61
[1], 381.2 K	–	–	120.11
[1], 383 K	–	–	126.54
[1], 384.8 K	–	–	133.92
[1], vibrating tube	801.47	–	–
[2], Abbe refractometer	–	1.3881	–

CCC(=O)CC [pentan-3-one]
Settings	mass density [kg/m3]	refractive index	vapor or sublimation pressure [kPa]
[1], 290 K	–	–	3.42
[1], 309.9 K	–	–	9.21
[1], 320 K	–	–	14.22
[1], 330.6 K	–	–	22.33
[1], 341.4 K	–	–	33.64
[1], 350.4 K	–	–	46.5
[1], 361.3 K	–	–	66.6
[1], 367.5 K	–	–	82.09
[1], 371 K	–	–	90.18
[1], 371.5 K	–	–	91.82
[1], 374.75 K	–	–	101.32
[1], 375.2 K	–	–	102.52
[1], Vibrating tube method	809.43	–	–
[2], Standard Abbe refractometry	–	1.39	–
